The test system of one data set is rat P-gp. Kind of data set: Substrate activity at rat P-gp assessed as efflux ratio at 1 uM. The settings on record: not told. Type of data set: ADME.
Data set [1] concerns the target T1, Ceramide glucosyltransferase (Homo sapiens, UniProt Q16739).
T1 sequence (Q16739 whole entry): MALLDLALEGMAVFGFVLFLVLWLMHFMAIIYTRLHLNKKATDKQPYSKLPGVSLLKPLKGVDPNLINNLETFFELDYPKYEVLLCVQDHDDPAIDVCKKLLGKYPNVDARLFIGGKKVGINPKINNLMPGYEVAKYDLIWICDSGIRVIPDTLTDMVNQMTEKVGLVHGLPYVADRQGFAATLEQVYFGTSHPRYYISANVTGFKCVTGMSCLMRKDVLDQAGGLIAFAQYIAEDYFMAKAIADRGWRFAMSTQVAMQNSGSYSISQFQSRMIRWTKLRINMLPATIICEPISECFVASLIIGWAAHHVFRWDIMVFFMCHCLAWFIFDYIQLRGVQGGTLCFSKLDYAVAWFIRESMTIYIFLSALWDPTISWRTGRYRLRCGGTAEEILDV
Kind of data set: Inhibition of GCS in human fibroblast. Type of data set: cell-based.

Another data set has as its target T2, mouse BCRP (ABCG2) (Mus musculus, UniProt Q7TMS5).
T2 sequence (Q7TMS5 whole entry): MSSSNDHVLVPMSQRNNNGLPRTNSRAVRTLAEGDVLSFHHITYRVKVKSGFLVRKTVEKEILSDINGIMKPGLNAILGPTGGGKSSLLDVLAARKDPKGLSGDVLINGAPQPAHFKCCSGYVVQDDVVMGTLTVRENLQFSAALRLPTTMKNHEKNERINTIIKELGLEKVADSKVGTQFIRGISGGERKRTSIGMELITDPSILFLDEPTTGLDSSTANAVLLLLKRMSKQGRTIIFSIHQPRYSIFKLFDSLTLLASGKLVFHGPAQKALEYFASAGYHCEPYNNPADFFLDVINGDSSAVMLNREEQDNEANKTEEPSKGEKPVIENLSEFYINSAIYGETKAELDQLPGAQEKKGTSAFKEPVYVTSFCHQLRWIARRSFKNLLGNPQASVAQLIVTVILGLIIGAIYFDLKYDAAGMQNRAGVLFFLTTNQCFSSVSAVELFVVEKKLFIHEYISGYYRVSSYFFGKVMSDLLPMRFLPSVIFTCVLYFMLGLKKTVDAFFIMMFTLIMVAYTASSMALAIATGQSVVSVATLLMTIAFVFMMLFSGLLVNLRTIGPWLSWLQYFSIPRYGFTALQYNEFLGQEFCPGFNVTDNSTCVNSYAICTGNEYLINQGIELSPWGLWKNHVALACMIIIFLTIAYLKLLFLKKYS
Kind of data set: Substrate activity at mouse BCRP assessed as apparent permeability at 1 uM. The conditions noted are these: not told. Type of data set: ADME.

Data set [2] addresses T3, 5-hydroxytryptamine receptor 3A (Homo sapiens, UniProt P46098).
T3 sequence (P46098 whole entry): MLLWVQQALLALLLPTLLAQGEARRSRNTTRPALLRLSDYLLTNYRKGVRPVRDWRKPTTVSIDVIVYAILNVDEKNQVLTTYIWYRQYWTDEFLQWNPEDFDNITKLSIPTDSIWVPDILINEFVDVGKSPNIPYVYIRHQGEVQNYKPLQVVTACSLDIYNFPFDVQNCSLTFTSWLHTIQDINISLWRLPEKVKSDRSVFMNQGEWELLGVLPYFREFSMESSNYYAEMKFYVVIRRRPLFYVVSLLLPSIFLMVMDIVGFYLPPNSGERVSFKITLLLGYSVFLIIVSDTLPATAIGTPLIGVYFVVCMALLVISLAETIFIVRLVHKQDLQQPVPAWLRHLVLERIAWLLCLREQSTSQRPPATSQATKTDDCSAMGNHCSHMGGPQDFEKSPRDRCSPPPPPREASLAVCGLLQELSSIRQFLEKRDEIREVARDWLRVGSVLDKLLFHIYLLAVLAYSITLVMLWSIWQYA
The experiment in a line: Antagonist activity at human 5HT3A expressed in HEK293 cells incubated for 1 hr by FLIPR assay. Type of data set: cell-based.

The species entered for data set [3] is Homo sapiens. The experiment in a line: Selectivity ratio of IC50 for human 5HT3A to IC50 for GCS (unknown origin).
Data set [4] is described as follows: Intrinsic clearance in rat at 5 to 10 mg/kg, po or 0.05 to 2 mg/kg, iv. Type of data set: ADME, organism-based. The conditions noted are these: in vivo, dose 5-10 mg/kg.
Data set [5] in a line: Bioavailability in rat at 5 to 10 mg/kg, po or 0.05 to 2 mg/kg, iv. The settings on record: in vivo, dose 5-10 mg/kg. Type of data set: ADME, organism-based.
The nature of data set [6]: Unbound fraction in dog plasma. Type of data set: ADME, cell-free, Canis lupus familiaris.
The nature of data set [7]: Unbound fraction in human plasma. Type of data set: ADME, cell-free.
Data set [8] in a line: Solubility of compound at pH 2 by HPLC method. Type of data set: physicochemical. The conditions noted are these: buffer.
Data set [9] is described as follows: Solubility of compound at pH 7 by HPLC method. Type of data set: physicochemical. The settings on record: buffer.
For data set [10], the species on record is Homo sapiens. The experiment in a line: Inhibition of CYP2C9 (unknown origin) relative to control.
Data set [11] concerns the target T4, Muscarinic acetylcholine receptor M5 (Homo sapiens, UniProt P08912).
T4 sequence (P08912 whole entry): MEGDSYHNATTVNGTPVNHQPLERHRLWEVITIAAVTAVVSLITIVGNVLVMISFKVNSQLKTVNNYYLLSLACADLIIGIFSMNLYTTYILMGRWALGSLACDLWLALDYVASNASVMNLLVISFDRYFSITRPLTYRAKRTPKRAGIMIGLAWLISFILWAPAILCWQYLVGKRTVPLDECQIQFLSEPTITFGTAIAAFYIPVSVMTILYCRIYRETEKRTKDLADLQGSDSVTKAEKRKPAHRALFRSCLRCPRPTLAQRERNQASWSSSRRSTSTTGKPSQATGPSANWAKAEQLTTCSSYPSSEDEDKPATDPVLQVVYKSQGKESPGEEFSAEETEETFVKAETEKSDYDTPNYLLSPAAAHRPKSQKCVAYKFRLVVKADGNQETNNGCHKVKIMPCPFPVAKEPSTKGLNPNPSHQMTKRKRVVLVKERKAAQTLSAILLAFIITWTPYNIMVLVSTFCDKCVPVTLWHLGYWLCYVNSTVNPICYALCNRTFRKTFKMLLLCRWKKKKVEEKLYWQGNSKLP
The experiment in a line: Inhibition of human muscarinic M5 receptor.

Data set [12] has as its target Neuronal acetylcholine receptor subunit alpha-3 (Homo sapiens, UniProt P30926+P32297). The experiment in a line: Inhibition of human alpha3beta4 nAChR.
Data set [13] is described as follows: Bioavailability in rat. Type of data set: ADME, organism-based. The settings on record: in vivo.

In brackets after ≈: the same amount, converted by molar mass.

Here are results for 2 molecules from ChEMBL document CHEMBL5223177, “Pyrazole Ureas as Low Dose, CNS Penetrant Glucosylceramide Synthase Inhibitors for the Treatment of Parkinson's Disease” (ACS Med Chem Lett, 2023).

What is called efflux ratio is a quotient of directional permeabilities that is used to spot active efflux. One may read the IC50 as the concentration that gives 50% inhibition. Low readings indicate greater potency, high ones weaker potency. The Papp is the rate of passage across a membrane or cell layer, normalised by area and donor concentration. A word on the bioavailability: it is the share of a dose that reaches the circulation, judged against a reference dose that is usually intravenous. Lower therefore signals little systemic uptake. As a reminder, the fraction unbound is free concentration divided by total concentration. Higher therefore signals weak binding. The term solubility denotes the concentration that dissolves in the medium under given conditions. For orientation: Emax means the greatest response seen or fitted, relative to the assay's reference.

Sequence of Neuronal acetylcholine receptor subunit alpha-3 (P32297 whole entry, one chain of several): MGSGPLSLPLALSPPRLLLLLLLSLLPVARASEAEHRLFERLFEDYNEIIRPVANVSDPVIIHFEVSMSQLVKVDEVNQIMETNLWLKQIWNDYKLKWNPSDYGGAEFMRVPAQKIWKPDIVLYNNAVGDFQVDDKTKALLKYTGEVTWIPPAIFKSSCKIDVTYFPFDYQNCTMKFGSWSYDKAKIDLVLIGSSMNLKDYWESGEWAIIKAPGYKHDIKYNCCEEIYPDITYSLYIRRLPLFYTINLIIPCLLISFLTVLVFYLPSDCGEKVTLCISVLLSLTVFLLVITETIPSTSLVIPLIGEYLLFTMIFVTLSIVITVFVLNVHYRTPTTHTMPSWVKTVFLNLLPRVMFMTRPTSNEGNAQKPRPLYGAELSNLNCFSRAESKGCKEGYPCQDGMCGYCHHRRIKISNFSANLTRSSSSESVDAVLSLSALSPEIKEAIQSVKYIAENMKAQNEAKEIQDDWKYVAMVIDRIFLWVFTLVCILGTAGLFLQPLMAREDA

With `Cl.O=C(N1CCN2CCC1CC2)n1nc(-n2cc(C(F)(F)F)cn2)c2c1COCC2`, the efflux ratio at 1 µM in the data set with rat P-gp is 4.6. Besides, the IC50 was 32 nM in [1], 1970 nM in data set [2], 10200 nM in [11] and 2200 nM in [12]. Also, the Papp at 1 µM on mouse BCRP (ABCG2) was 31 ×10⁻⁶ cm/s. Also, the Ratio IC50 in the data set listed under Homo sapiens [3] came to 1100. Also, the CL in [4] stood at 55 mL/min/kg. Further, the bioavailability in [5] and in data set [13] was 95% each time. Further, the fraction unbound stood at 0.27 in data set [6] and 0.03 in data set [7]. Also, the values for the solubility in data set [8] and in [9] were 174 µM and 168 µM, respectively. Also, the Emax in the data set filed under Homo sapiens [10] was determined as 26%.
On to `O=C(N1CCN2CCC1CC2)n1nc(-c2ccc(F)cc2)c2c1COCC2`, for which, in the data set on rat P-gp, the efflux ratio at 1 µM turned out to be 3.4. In addition, the IC50 in [1] came out at 34 nM; in data set [2] it was 224 nM; in [11], 10200 nM; in data set [12], 2200 nM. Also, on mouse BCRP (ABCG2), the Papp at 1 µM was found to be 31 ×10⁻⁶ cm/s. Besides, in the data set listed under Homo sapiens [3], the Ratio IC50 worked out at 64. In data set [4], this molecule showed a CL of 90 mL/min/kg. The bioavailability in data set [5] and in data set [13] was 73% in each case. The fraction unbound in [6] was determined as 0.3; in [7], 0.03. Moreover, the solubility came out at 167 µM (≈ 61.9 µg/mL) in data set [8] and 170 µM (≈ 63 µg/mL) in data set [9]. This molecule also showed an Emax in the data set filed under Homo sapiens [10] of 17%.
